From PubChem BioAssay (NCI)
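48-hour exposure; five concentrations; linearly interpolated endpoints. TGI: total growth inhibition.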

Key:
Experiment in all cases: NCI tumour cell line growth inhibition, 48 h
NCI-H460 lung = tested on: NCI-H460 lung
SK-MEL-2 melanoma = tested on: SK-MEL-2 melanoma
SK-MEL-5 melanoma = tested on: SK-MEL-5 melanoma
HOP-92 NSCLC = tested on: HOP-92 NSCLC
A549 NSCLC = tested on: A549 NSCLC
LOX IMVI melanoma = tested on: LOX IMVI melanoma
SNB-78 CNS = tested on: SNB-78 CNS
COLO 205 colon = tested on: COLO 205 colon
DMS 114 small cell lung = tested on: DMS 114 small cell lung
HT29 colon = tested on: HT29 colon
UACC-257 melanoma = tested on: UACC-257 melanoma
NCI-H23 lung = tested on: NCI-H23 lung
RXF 393 renal = tested on: RXF 393 renal
DMS 273 small cell lung = tested on: DMS 273 small cell lung
CAKI-1 renal = tested on: CAKI-1 renal
U251 CNS = tested on: U251 CNS
UO-31 renal = tested on: UO-31 renal
NCI-H522 lung = tested on: NCI-H522 lung
786-0 renal = tested on: 786-0 renal
SW-620 colon = tested on: SW-620 colon
OVCAR-4 ovarian = tested on: OVCAR-4 ovarian
UACC-62 melanoma = tested on: UACC-62 melanoma
SF-295 CNS = tested on: SF-295 CNS
EKVX NSCLC = tested on: EKVX NSCLC
SNB-75 CNS = tested on: SNB-75 CNS
SK-OV-3 ovarian = tested on: SK-OV-3 ovarian
SNB-19 CNS = tested on: SNB-19 CNS
RXF-631 renal = tested on: RXF-631 renal
IGROV1 ovarian = tested on: IGROV1 ovarian
HL-60(TB) leukemia = tested on: HL-60(TB) leukemia
M14 melanoma = tested on: M14 melanoma
KM12 colon = tested on: KM12 colon
SN12C renal = tested on: SN12C renal
NCI-H226 lung = tested on: NCI-H226 lung
KM20L2 colon = tested on: KM20L2 colon
HCT-15 colon = tested on: HCT-15 colon
SR leukemia = tested on: SR leukemia
ACHN renal = tested on: ACHN renal
LXFL 529 NSCLC = tested on: LXFL 529 NSCLC
HCT-116 colon = tested on: HCT-116 colon
MALME-3M melanoma = tested on: MALME-3M melanoma
CCRF-CEM leukemia = tested on: CCRF-CEM leukemia
OVCAR-8 ovarian = tested on: OVCAR-8 ovarian
A498 renal = tested on: A498 renal
M19-MEL melanoma = tested on: M19-MEL melanoma
SF-268 CNS = tested on: SF-268 CNS
HOP-18 NSCLC = tested on: HOP-18 NSCLC
OVCAR-5 ovarian = tested on: OVCAR-5 ovarian
MOLT-4 leukemia = tested on: MOLT-4 leukemia
RPMI-8226 leukemia = tested on: RPMI-8226 leukemia
K-562 leukemia = tested on: K-562 leukemia
SK-MEL-28 melanoma = tested on: SK-MEL-28 melanoma
OVCAR-3 ovarian = tested on: OVCAR-3 ovarian
DLD-1 colon = tested on: DLD-1 colon
HCC-2998 colon = tested on: HCC-2998 colon
TK-10 renal = tested on: TK-10 renal
HOP-62 NSCLC = tested on: HOP-62 NSCLC
SF-539 CNS = tested on: SF-539 CNS
XF 498 CNS = tested on: XF 498 CNS

Measured: TGI

COC(=O)C(=O)C(C(=O)C(=O)Nc1ccccc1[N+](=O)[O-])c1nc2ccc([N+](=O)[O-])cc2[nH]c1=O (stereo not given)
not listed: OVCAR-3 ovarian | DLD-1 colon | HCC-2998 colon | TK-10 renal | HOP-62 NSCLC | SF-539 CNS | XF 498 CNS
> 100 µM: all other assays above

O=C1OC(=O)C23CSCC12C1C=CC3O1 (stereo not given)
not listed: HOP-92 NSCLC | SNB-78 CNS | OVCAR-4 ovarian | RXF-631 renal | SR leukemia | HOP-18 NSCLC
> 100 µM: all other assays above
